Results reported in patent US12109177B2 (priority 2021, dated 2024).
“Also recorded” adds a separate entry of the source. Where two headings read alike, the source gives them in different places.

What was measured:
VX2 brain tumor = settings: rabbit, in vivo
blood neutrophils [1] = settings: rabbit, in vivo
flank GL261 tumor = settings: in vivo
blood neutrophils [2] = settings: mouse, in vivo

O=P1(N(CCCl)CCCl)NCCCO1 (stereo not drawn) [CPA, cyclophosphamide]
long-term survivors (VX2 brain tumor): without any long-term survivor | blood neutrophil count (blood neutrophils [1]): significant neutrophil suppression

NC(=O)NO [HU, hydroxyurea]
deaths from tumor regrowth (VX2 brain tumor): one | intratumoral accumulation of neutrophils (VX2 brain tumor): effective in suppressing the intratumoral accumulation of neutrophils | long-term survivors (VX2 brain tumor): 8 | lymphocyte counts (blood neutrophils [1]): not significantly affected | other blood cell types (blood neutrophils [1]): has not affected other blood cell types significantly | time to neutrophil count rebound after spore injection (blood neutrophils [1]): at least 3 days | mice died of treatment-related (immediate) toxicity (flank GL261 tumor; female, C57BL6, mouse): 2/12 | mice cured (total tumor clearance, absence of any tumor after 3 weeks) (flank GL261 tumor; mouse): 9/12 | mice with partial tumor clearance (initial reduction, later regrowth) (flank GL261 tumor; mouse): 1/12 | therapeutic effect of agent alone (flank GL261 tumor; mouse): did not show any noticeable therapeutic effects | blood neutrophil count (blood neutrophils [2]): greatly suppressed the neutrophil levels; also recorded: drastically reduced the neutrophil counts | other blood cell counts (blood neutrophils [2]): also affected in various degrees | lymphocyte count (blood neutrophils [2]; ip): significant drop of lymphocytes
